Measured values: PMC7797525 (iScience, 2020)

What was measured:
RecA [1] = biological target: T1, RecA (Escherichia coli, UniProt P0A7G6, Y104A); test: isothermal titration calorimetry; type: binding
T1 sequence (P0A7G6 2-353 Y104A): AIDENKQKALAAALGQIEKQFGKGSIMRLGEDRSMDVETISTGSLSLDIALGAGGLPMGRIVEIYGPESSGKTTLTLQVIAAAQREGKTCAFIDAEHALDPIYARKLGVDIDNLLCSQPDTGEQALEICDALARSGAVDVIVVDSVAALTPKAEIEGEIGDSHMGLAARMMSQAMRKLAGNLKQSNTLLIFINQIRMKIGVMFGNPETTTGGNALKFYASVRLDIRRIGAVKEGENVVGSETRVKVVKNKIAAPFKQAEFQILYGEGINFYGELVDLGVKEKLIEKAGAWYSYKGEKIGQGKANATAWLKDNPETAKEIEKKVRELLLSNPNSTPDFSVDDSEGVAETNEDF

RecA [2] = biological target: T2, RecA (Escherichia coli, UniProt P0A7G6); test: isothermal titration calorimetry; type: binding
T2 sequence (P0A7G6 2-353): T1 sequence (P0A7G6 2-353 Y104A)

Compound | Kd (RecA [1]) | Kd (RecA [2])
Cc1ccc(C(=O)Nc2ccc(S(=O)(=O)O)c3cc(S(=O)(=O)O)cc(S(=O)(=O)O)c23)cc1NC(=O)c1cccc(NC(=O)Nc2cccc(C(=O)Nc3cc(C(=O)Nc4ccc(S(=O)(=O)O)c5cc(S(=O)(=O)O)cc(S(=O)(=O)O)c45)ccc3C)c2)c1 [cpd01, suramin] | 40.2 µM | 17.6 µM
COc1cc(-c2ccc(N=Nc3ccc4c(S(=O)(=O)O)cc(S(=O)(=O)O)c(N)c4c3O)c(OC)c2)ccc1N=Nc1ccc2c(S(=O)(=O)O)cc(S(=O)(=O)O)c(N)c2c1O [s05, Chicago sky blue] | – | 18.8 µM
Cc1cc(-c2ccc(/N=N/c3ccc4c(S(=O)(=O)O)cc(S(=O)(=O)O)c(N)c4c3O)c(C)c2)ccc1/N=N/c1ccc2c(S(=O)(=O)O)cc(S(=O)(=O)O)c(N)c2c1O [s06, Evans blue] | – | 11.5 µM
